From PubChem BioAssay (NCI) come the findings set out here.

Test systems include HOP-92 NSCLC; HCT-15 colon; TK-10 renal; SNB-75 CNS; RXF 393 renal; HT29 colon; MALME-3M melanoma; OVCAR-4 ovarian; SK-MEL-5 melanoma; SF-268 CNS; NCI-H460 lung; T-47D breast; HS 578T breast.
What all share (test): growth of human tumour cells (NCI), 48 h

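Cells were grown in 96-well plates and exposed to each compound for 48 hours at five concentrations; endpoints were interpolated linearly between bracketing concentrations, or set to the highest concentration if not reached. TGI: concentration producing complete growth inhibition.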

On to `O=C(O)C(Cc1cnc[nH]1)N=Cc1nc(-c2ccccc2)oc1O` (stereo not given), for which the TGI with HOP-92 NSCLC, in the experiment with HCT-15 colon, in the experiment on TK-10 renal, in the experiment on SNB-75 CNS, with RXF 393 renal and with HT29 colon was over 100 µM throughout. The TGI in the experiment with MALME-3M melanoma, in the experiment with OVCAR-4 ovarian, in the experiment with SK-MEL-5 melanoma, with SF-268 CNS and in the experiment on NCI-H460 lung was over 100 µM each time.

Take `O=C1SC(c2ccccc2)(c2ccccc2)c2ccccc21`: the TGI in the experiment with HCT-15 colon, with TK-10 renal, in the experiment on SNB-75 CNS, in the experiment with RXF 393 renal, in the experiment with HT29 colon and in the experiment on MALME-3M melanoma was over 100 µM each time. For the same molecule, the TGI in the experiment on OVCAR-4 ovarian, in the experiment on SK-MEL-5 melanoma, in the experiment with SF-268 CNS and in the experiment on NCI-H460 lung was over 100 µM each time.

For `CC(=O)[O-].CC(=O)[O-].O=C(N/N=C/c1cc(Cl)cc(Cl)c1[OH2+])c1ccncc1.[Zn+2]`, the TGI in the experiment on HCT-15 colon, with TK-10 renal, in the experiment on SNB-75 CNS, in the experiment on RXF 393 renal, in the experiment on MALME-3M melanoma and in the experiment on SK-MEL-5 melanoma was over 100 µM in each case. Moreover, the TGI in the experiment on SF-268 CNS and in the experiment with NCI-H460 lung was over 100 µM throughout.

As to `Cc1ccc(NC(=O)C(=O)C2NC(=S)NC2=O)c([N+](=O)[O-])c1` (stereo not given), the TGI in the experiment with HOP-92 NSCLC, in the experiment on HCT-15 colon, in the experiment with TK-10 renal, with SNB-75 CNS, with RXF 393 renal and in the experiment on HT29 colon was over 100 µM throughout. In addition, the TGI in the experiment on MALME-3M melanoma, with OVCAR-4 ovarian, in the experiment with SK-MEL-5 melanoma, in the experiment with SF-268 CNS and in the experiment on NCI-H460 lung was over 100 µM throughout.

On to `COC(=O)c1cc(-c2ccc(-c3ccc(O)cc3)cc2)cc(-c2ccc(-c3ccc(O)cc3)cc2)c1`, for which the TGI with HOP-92 NSCLC came out at 20.9 µM; in the experiment with HCT-15 colon it was 20.8 µM; in the experiment on TK-10 renal, 26.7 µM; in the experiment on T-47D breast, 33.8 µM; with SNB-75 CNS, 27.8 µM; in the experiment on RXF 393 renal it was 20.9 µM. The TGI was 35.9 µM in the experiment on OVCAR-4 ovarian, 30.7 µM in the experiment on SK-MEL-5 melanoma, 17.8 µM with SF-268 CNS and 35 µM with NCI-H460 lung.

For the molecule `O=C1N(CN2CCOCC2)CN(CN2CCOCC2)C(=O)N1Cc1ccccc1`, the TGI was 73 µM in the experiment with HOP-92 NSCLC; 84.8 µM with HCT-15 colon; over 100 µM with TK-10 renal; 77.1 µM with T-47D breast; 72.5 µM in the experiment on SNB-75 CNS; 35.7 µM in the experiment with RXF 393 renal. In addition, the TGI in the experiment on HT29 colon is 39.9 µM; in the experiment on MALME-3M melanoma it was 29.5 µM; in the experiment with OVCAR-4 ovarian it was over 100 µM; in the experiment with SK-MEL-5 melanoma, 44.2 µM; in the experiment with SF-268 CNS it was 53.1 µM; in the experiment with NCI-H460 lung, over 100 µM.

Regarding `Cc1ccc(S(=O)(=O)N/N=C/c2oc(-c3ccccc3Cl)c(-c3ccccc3Cl)c2[N+](=O)[O-])cc1`, the TGI is 55 µM in the experiment on HOP-92 NSCLC; over 100 µM in the experiment on TK-10 renal; 28.4 µM in the experiment on RXF 393 renal; over 100 µM in the experiment on HT29 colon; 71.4 µM in the experiment on MALME-3M melanoma; over 100 µM with OVCAR-4 ovarian. In addition, the TGI with SK-MEL-5 melanoma is 43.1 µM; in the experiment on SF-268 CNS, over 100 µM; with NCI-H460 lung it was 29.9 µM.

Consider `CCn1c(-c2ccccc2)nc2c1C(=O)c1ccccc1C2=O`, for which the TGI is 82 µM in the experiment on HOP-92 NSCLC; 44.1 µM in the experiment on HCT-15 colon; 85.9 µM in the experiment on TK-10 renal; 50.9 µM in the experiment on RXF 393 renal; 30.3 µM with HT29 colon; over 100 µM in the experiment with HS 578T breast. Further, the TGI in the experiment with MALME-3M melanoma is 21.7 µM; in the experiment on OVCAR-4 ovarian it was 30 µM; in the experiment on SK-MEL-5 melanoma, 23.2 µM; with NCI-H460 lung, 46.5 µM.

For the molecule `C[N+](C)(C)Cc1c(CC#N)[nH]c2ccccc12`, the TGI in the experiment with HCT-15 colon, in the experiment on TK-10 renal, with SNB-75 CNS, in the experiment with RXF 393 renal, in the experiment on HT29 colon and in the experiment on MALME-3M melanoma was over 100 µM each time. Besides, the TGI in the experiment with OVCAR-4 ovarian, in the experiment on SK-MEL-5 melanoma, with SF-268 CNS and in the experiment on NCI-H460 lung was over 100 µM each time.

For `O=c1[nH]c(=O)n(C2CC(O)C(CO)O2)cc1C#Cc1cc(C(F)(F)F)cc(C(F)(F)F)c1` (stereo not given), the TGI is over 100 µM in the experiment with HOP-92 NSCLC; over 100 µM with HCT-15 colon; over 100 µM in the experiment with TK-10 renal; over 67.1 µM with SNB-75 CNS; 39 µM in the experiment with RXF 393 renal; over 51.9 µM with HT29 colon. Besides, the TGI is over 100 µM in the experiment on MALME-3M melanoma; over 100 µM with OVCAR-4 ovarian; over 55.6 µM in the experiment on SK-MEL-5 melanoma; over 100 µM with SF-268 CNS; over 100 µM in the experiment with NCI-H460 lung.

Regarding `CC(C)/C(Cl)=N\OC(=O)Nc1ccc(F)c([N+](=O)[O-])c1`, the TGI came out at 4.77 µM in the experiment with HOP-92 NSCLC; 6.75 µM with HCT-15 colon; 13.5 µM in the experiment with TK-10 renal; 27.2 µM in the experiment with SNB-75 CNS; 33 µM with RXF 393 renal; 35.3 µM in the experiment on HT29 colon. In addition, the TGI is 25.1 µM in the experiment with HS 578T breast; 3 µM in the experiment on MALME-3M melanoma; 8.99 µM in the experiment on OVCAR-4 ovarian; 22.4 µM with SK-MEL-5 melanoma; 27.6 µM in the experiment with SF-268 CNS; 7.89 µM in the experiment with NCI-H460 lung.

As to `Cn1c(=O)c2nc3nnc(C#N)c(N)n3c2n(C)c1=O`, the TGI in the experiment on HOP-92 NSCLC, with HCT-15 colon, with TK-10 renal, in the experiment on T-47D breast, in the experiment on RXF 393 renal and in the experiment with HT29 colon was over 100 µM throughout. Also, the TGI in the experiment with MALME-3M melanoma is 81.2 µM; in the experiment with OVCAR-4 ovarian, over 100 µM; with SK-MEL-5 melanoma, over 100 µM; in the experiment with SF-268 CNS, over 100 µM; with NCI-H460 lung, over 100 µM.
